Where a name gives a salt, the structure may show the parent alone. Read-outs that look alike come from different tables or passages of the source.
Experiments:
[1] = molecular target: T1, nicotinic acetylcholine receptor (Rattus norvegicus, UniProt P09483+P12390); test: 3H-nicotine binding/displacement, rat cerebral membranes
T1 construct: Synaptic membranes were prepared by homogenizing the cortical tissue; from tissue; host or cells: cerebral cortex synaptic membranes of male Sprague-Dawley rats
Description: ^3 H-Nicotine binding to rat cerebral membranes was performed according to modifications of the method of Flyn and Mash (J. Neurochem. 47:1948 (1986)). ^3 H-Nicotine (80 ci/mmol; New England Nuclear Corporation, Boston, Mass.) was used as the ligand for nicotinic acetylcholine receptor binding assays. All other reagents were purchased from the Sigma Chemical Co. (St. Louis, Mo.).
Male Sprague-Dawley rats (250-400 gm) were sacrificed by decapitation, the brains removed and the cerebral cortex dissected on ice. Synaptic membranes were prepared by homogenizing the cortical tissue in 20 volumes of ice-cold modified Tris buffer (50 mM Tris pH 7.4, 120 mM NaCl, 5 mM KCl, 2 mM EDTA, 1 mM PMSF) with a polytron (20 sec at setting 5-6) followed by centrifugation (15 min at 25,000×g) at 4° C. The resultant pellet was rehomogenized and centrifuged twice. The final pellet was resuspended in ice-cold assay buffer (50 mM Tris pH 7.4, 120 mM NaCl, 5 mM KCl, 2 mM CaCl2, 1 MM MgCl2) at a concentration of membrane equivalent to 1 gm wet weight cortex per 10 ml buffer. After protein determination the final membrane preparation was diluted with buffer to 3 mg protein/ml. This membrane preparation was used in either the fresh state or frozen (-70° C.) then thawed.
The binding assay is performed manually using 96-well plates, or using a Biomek automated work station (Beckman Instrument Co.). ^3 H-Nicotine was diluted in assay buffer to give a final concentration of 1.9 nM. The Biomek automated work station was programmed to automatically transfer 750 μl of assay buffer with ^3 H-nicotine, 230 μl of membrane preparation and 20 μl of solution containing the compound of interest in assay buffer, DMSO, ethanol:DMSO (1:1) or appropriate vehicle to the 96-well plate. Atropine was added to the incubation buffer at a final concentration of 3 μM to block binding to muscarinic acetylcholine receptor sites. The plates were maintained on ice for 60 min and the tissue-bound radioactivity was separated from the free by rapid filtration in a Brandel Harvester onto GF/C filters presoaked in 0.5% polyethyleneimine for at least 2 hr. The filters were washed with 4×2 ml of ice-cold assay buffer and filters were transferred to vials to which 4 ml of scintillation cocktail was added. The radioactivity was measured in a LS-6500 Beckman Liquid Scintillation Counter in an autodpm mode. Data were analyzed by log-logit transformation or non-linear regression analysis (e.g., employing GraphPad Prism, available from GraphPad Software, San Diego, Calif.) to give IC50 values. Non-specific binding was defined by 10 μM cytisine.

[2] = molecular target: muscarinic acetylcholine receptors; test: 3H-QNB (quinuclidinyl benzilate) displacement, rat cerebral membranes; assay type: binding
[3] = system: rat olfactory tubercles (3H-dopamine release); assay type: cell-based
Description: (§1) Measurement of ^3 H-dopamine release from rat striatal slices was performed according to the method of Sacaan et al. (J. Neurochem. 59:245 (1992)). Male Sprague-Dawley rats (250-300 g) were decapitated and the striata or olfactory tubercles dissected quickly on a cold glass surface. The tissue was chopped to a thickness of 300 μm with a McIlwain tissue chopper. After chopping again at right angles the tissue was dispersed and incubated for 10 min. at 37° C. in oxygenated Kreb's buffer. ^3 H-Dopamine (40 Ci/mmol, NEN- Dupont, Boston, Mass.) was added (50 nM) and the tissue was incubated for 30 min. in Kreb's buffer containing 10 μM pargyline and 0.5 mM ascorbic acid. Aliquots of the minced tissue were then transferred to chambers of a Brandel Superfusion system in which the tissue was supported on Whatman GF/B filter discs. The tissue was then superfused with buffer at a constant flow rate of 0.3 ml/min by means of a Brandel peristaltic pump. The perfusate was collected in plastic scintillation vials in 3-min fractions, and the radioactivity was estimated by scintillation spectrophotometry. The superfusate for the first 120 min was discarded. After two baseline fractions had been collected, the superfusion buffer was switched to fresh buffer with or without compound of interest. At the end of the experiment the filter and the tissue were removed, and the radiolabeled neurotransmitter content was estimated after extraction into scintillation fluid. The fractional effiux of radiolabeled neurotransmitter was estimated as the amount of radioactivity in the perfusate fraction relative to the total amount in the tissue.
(§2) The results of studies of the effects of an invention compound (as compared to the effect of nicotine) on the release of neurotransmitters from rat brain slices are presented in Table II. The results presented in the Table are expressed as the percent fractional release.

[4] = system: rat striatal slices (3H-dopamine release); assay type: cell-based
Description: as §1, §2

[5] = system: rat hippocampus slices (3H-norepinephrine release); assay type: cell-based
Description: as §1
(§3) Following essentially the same procedure as set forth in the preceding paragraph, the amount of ^3 H-norepinephrine released from rat hippocampus, thalamus and prefrontal cortex slices superfused with buffer containing (or lacking) compounds of interest was also measured.
as §2

[6] = system: rat prefrontal cortex slices (3H-norepinephrine release); assay type: cell-based
Description: as §1, §3, §2

[7] = system: rat thalamus slices (3H-norepinephrine release); assay type: cell-based
Description: as §1, §3, §2

[8] = displacement of 1.9 nM 3H-nicotine, rat cerebral membranes, 3 μM atropine, read-out: IC50, Nicotine
[9] = displacement of 60 pM 3H-QNB, rat cerebral membranes
[10] = rat olfactory tubercles, compound concentration not given
[11] = rat striatum slices, compound concentration not given
[12] = rat hippocampus slices, compound concentration not given
[13] = rat prefrontal cortex slices, compound concentration not given
[14] = rat thalamus slices, compound concentration not given

T1 sequence (P09483 31-630): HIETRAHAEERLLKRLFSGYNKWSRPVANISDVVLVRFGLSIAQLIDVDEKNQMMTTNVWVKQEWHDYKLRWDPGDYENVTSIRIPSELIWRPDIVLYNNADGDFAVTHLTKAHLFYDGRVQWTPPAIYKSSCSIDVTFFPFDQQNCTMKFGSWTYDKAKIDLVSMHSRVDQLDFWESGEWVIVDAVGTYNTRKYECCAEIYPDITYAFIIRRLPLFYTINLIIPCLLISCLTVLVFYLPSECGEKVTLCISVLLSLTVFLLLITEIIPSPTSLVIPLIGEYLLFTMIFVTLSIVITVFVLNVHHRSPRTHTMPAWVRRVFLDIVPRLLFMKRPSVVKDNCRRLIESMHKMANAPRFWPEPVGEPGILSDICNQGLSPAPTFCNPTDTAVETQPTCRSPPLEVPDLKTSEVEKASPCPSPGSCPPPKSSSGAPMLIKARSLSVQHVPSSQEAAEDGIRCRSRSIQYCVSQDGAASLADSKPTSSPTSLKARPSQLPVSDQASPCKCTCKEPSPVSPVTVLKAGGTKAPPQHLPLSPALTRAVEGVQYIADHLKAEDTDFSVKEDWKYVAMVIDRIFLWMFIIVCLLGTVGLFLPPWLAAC
T1 sequence (P12390 26-500 limits assumed): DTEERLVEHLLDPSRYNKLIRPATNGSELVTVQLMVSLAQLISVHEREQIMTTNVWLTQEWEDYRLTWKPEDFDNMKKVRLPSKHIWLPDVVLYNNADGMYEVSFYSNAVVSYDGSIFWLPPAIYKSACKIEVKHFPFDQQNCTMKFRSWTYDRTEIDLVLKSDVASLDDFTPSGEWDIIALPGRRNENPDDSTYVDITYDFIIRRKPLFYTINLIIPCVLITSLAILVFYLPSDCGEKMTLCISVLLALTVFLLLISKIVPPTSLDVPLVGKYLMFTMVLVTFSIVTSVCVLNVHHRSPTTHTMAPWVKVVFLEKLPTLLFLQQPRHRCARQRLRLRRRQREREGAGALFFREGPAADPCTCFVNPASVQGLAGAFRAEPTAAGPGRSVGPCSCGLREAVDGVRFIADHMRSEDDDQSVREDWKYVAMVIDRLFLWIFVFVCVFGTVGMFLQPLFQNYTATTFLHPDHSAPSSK

c1cncc(CNC2CC2)c1 [N-Cyclopropyl-3-picolylamine]
IC50 [1, 8]: 40 µM | IC50 [2, 9]: > 100 µM

c1ccc(CCCNCc2cccnc2)cc1 [N-Phenylpropyl-3-picolylamine]
IC50 [1, 8]: 20 µM | IC50 [2, 9]: 29 µM

CC(NC1CC1)c1cccnc1 (stereo not drawn) [α-Methyl-N-cyclopropyl-3-picolylamine]
IC50 [1, 8]: > 100 µM | IC50 [2, 9]: > 100 µM

CN1CCCC1c1cccnc1 (stereo not drawn) [Nicotine, reference compound]
3H-Dopamine, Olfactory Tubercles, percent fractional release [3]: 2.7 ± 0.4 | 3H-Dopamine, Striatum, percent fractional release [4]: 2.3 ± 0.7 | 3H-Norepinephrine, Hippocampus, percent fractional release [5]: 8.2 ± 1.5 | 3H-Norepinephrine, Prefrontal Cortex, percent fractional release [6]: 2.2 ± 0.2 | 3H-Norepinephrine, Thalamus, percent fractional release [7]: 1.7

c1ccc(-c2cncc(CN3CCC3)c2)cc1 [5-Phenyl-3-(N-azetidinomethyl)pyridine fumarate]
IC50 [1, 8]: 1.2 µM | IC50 [2, 9]: 6 µM

Oc1ccc(-c2cncc(CN3CCCC3)c2)cc1 [5-(4-hydroxyphenyl)-3-(N-pyrrolidinomethyl)pyridine]
IC50 [1, 8]: 0.082 µM | IC50 [2, 9]: > 10 µM | 3H-Dopamine, Olfactory Tubercles, percent fractional release [3, 10]: 6.12% | 3H-Dopamine, Striatum, percent fractional release [4, 11]: 4.32% | 3H-Norepinephrine, Hippocampus, percent fractional release [5, 12]: 1.06% | 3H-Norepinephrine, Prefrontal Cortex, percent fractional release [6, 13]: 1.24% | 3H-Norepinephrine, Thalamus, percent fractional release [7, 14]: 2.36%

Oc1ccc(-c2cncc(CN3CCCC3)c2)cc1Cl [5-(4-Hydroxy-3-chlorophenyl)-3-(N-pyrrolidinomethyl)pyridine]
IC50 [1, 8]: 0.043 µM | IC50 [2, 9]: > 10 µM | 3H-Dopamine, Olfactory Tubercles, percent fractional release [3, 10]: 8.75% | 3H-Dopamine, Striatum, percent fractional release [4, 11]: 6.00% | 3H-Norepinephrine, Hippocampus, percent fractional release [5, 12]: 1.91% | 3H-Norepinephrine, Prefrontal Cortex, percent fractional release [6, 13]: 1.82% | 3H-Norepinephrine, Thalamus, percent fractional release [7, 14]: 1.44%

C#Cc1cncc(CN2CCCC2)c1 [5-ethynyl-3-(N-pyrrolidinomethyl)pyridine]
IC50 [1]: 0.041 µM | IC50 [2]: > 100 µM | 3H-Dopamine, Olfactory Tubercles, percent fractional release [3, 10]: 0.91% | 3H-Dopamine, Striatum, percent fractional release [4, 11]: 2.09% | 3H-Norepinephrine, Hippocampus, percent fractional release [5, 12]: 0.97% | 3H-Norepinephrine, Prefrontal Cortex, percent fractional release [6, 13]: 0.84% | 3H-Norepinephrine, Thalamus, percent fractional release [7, 14]: 0.67%

CNC(C)c1cccnc1 (stereo not drawn) [α-Methyl-N-methyl-3-picolylamine]
IC50 [1, 8]: 3.6 µM | IC50 [2, 9]: > 100 µM

c1ccc(-c2cncc(CN3CCCC3)c2)cc1 [5-Phenyl-3-(N-pyrrolidinomethyl)pyridine]
IC50 [1, 8]: 0.53 µM | IC50 [2, 9]: 11.2 µM | 3H-Dopamine, Olfactory Tubercles, percent fractional release [3, 10]: 3.68% | 3H-Dopamine, Striatum, percent fractional release [4, 11]: 2.48% | 3H-Norepinephrine, Hippocampus, percent fractional release [5, 12]: 0.74% | 3H-Norepinephrine, Prefrontal Cortex, percent fractional release [6, 13]: 1.43% | 3H-Norepinephrine, Thalamus, percent fractional release [7, 14]: 1.42%

CC(c1cccnc1)N(C)C (stereo not drawn) [α-Methyl-N,N-dimethyl-3-picolylamine]
IC50 [1, 8]: 1.9 µM | displacement of ligand with 100 μM of compound (Quinuclidinyl benzilate) ([2]; 100 μM compound, 3H-QNB, rat cerebral membranes): Less than 20%

CN(Cc1cccnc1)C1CC1 [N-Methyl-N-cyclopropyl-3-picolylamine]
IC50 [1, 8]: 16 µM | IC50 [2, 9]: > 100 µM

CC(C)NC(C)c1cccnc1 (stereo not drawn) [α-Methyl-N-isopropyl-3-picolylamine]
IC50 [1, 8]: 19 µM | IC50 [2, 9]: > 100 µM

CN(CCCc1ccccc1)Cc1cccnc1 [N-Methyl-N-phenylpropyl-3-picolylamine]
IC50 [1, 8]: 34 µM | IC50 [2, 9]: 36 µM

From patent US6194581A, “Substituted pyridines useful as modulators of acetylcholine receptors” (Merck & Co., Inc., priority 1998, dated 2001)
